Assay [1] relates to vancomycin-binding aptamer (45-base; EAB sensor) (DNA, aptamer) CGAGGGTACCGCAATAGTACTTATTGTTCGCCTATTGTGGGTCGG
Description: alternating current voltammetry. To be noted: 2 mM Mg2+, PBS; 1x PBS, 37°C; apparent; Langmuir fit; 50 and 5 Hz.

Assay [2] shares this test system. Description: differential pulse voltammetry. The settings on record: 2 mM Mg2+, PBS; 1x PBS, 37°C; apparent; Langmuir fit.

`CN[C@H](CC(C)C)C(=O)N[C@H]1C(=O)N[C@@H](CC(N)=O)C(=O)N[C@H]2C(=O)N[C@H]3C(=O)N[C@H](C(=O)N[C@H](C(=O)O)c4cc(O)cc(O)c4-c4cc3ccc4O)[C@H](O)c3ccc(c(Cl)c3)Oc3cc2cc(c3O[C@@H]2O[C@H](CO)[C@@H](O)[C@H](O)[C@H]2O[C@H]2C[C@](C)(N)[C@H](O)[C@H](C)O2)Oc2ccc(cc2Cl)[C@H]1O`: the figures for the Kd in assay [1] and in assay [2] were 46 ± 4 µM and 76 ± 6 µM, respectively.
